Assay results as given in PubChem BioAssay AID2060910 (Molecular Pharmacology Branch, DTP, NCI, 2025).

Tested on: 242566-281-R-J2-PDC complex spheroid viability
Test: Anticancer human tumor 242566-281-R-J2-PDC patient-derived pancreatic carcinoma cell line growth inhibition [RAS]
Details: for viability, T/C: stronger effect = lower value
In short: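 Tumour cells grown as complex spheroids with HUVEC endothelial cells and mesenchymal stem cells, treated with RAS pathway inhibitor combinations. Each agent spans half-log steps from near clinical Cmax, or 10 microM where Cmax is unknown.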

[1] = curve of first compound, second compound 0.000949 µM
[2] = curve of first compound, second compound 0.003 µM
[3] = curve of first compound, second compound 0.00949 µM
[4] = curve of first compound, second compound 0.03 µM
[5] = curve of first compound, second compound 0.0949 µM
[6] = curve of first compound, second compound 0.3 µM
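Note: spheroids exposed to compound for 7 days before readout.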
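Throughout, for viability, T/C: 100% = DMSO vehicle control wells.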

CCN1CCN(Cc2ccc(Nc3ncc(F)c(-c4cc(F)c5nc(C)n(C(C)C)c5c4)n3)nc2)CC1 + CCn1c(-c2cc(N3CCN(C)CC3)cnc2C(C)OC)c2c3cc(ccc31)-c1csc(n1)CC(NC(=O)C1CC1C)C(=O)N1CCCC(N1)C(=O)OCC(C)(C)C2
IC50 [1]: > 1000 nM
IC50 [2]: > 1000 nM
IC50 [3]: < 3.16 nM
IC50 [4]: < 3.16 nM
IC50 [5]: < 3.16 nM
IC50 [6]: < 3.16 nM
viability, T/C (second compound 0.000949 µM, first compound 0.00316 µM): 88.6%
viability, T/C (second compound 0.000949 µM, first compound 0.01 µM): 88.5%
viability, T/C (second compound 0.000949 µM, first compound 0.0316 µM): 69.9%
viability, T/C (second compound 0.000949 µM, first compound 0.1 µM): 76%
viability, T/C (second compound 0.000949 µM, first compound 0.316 µM): 90.5%
viability, T/C (second compound 0.000949 µM, first compound 1 µM): 83.7%
viability, T/C (second compound 0.003 µM, first compound 0.00316 µM): 81.9%
viability, T/C (second compound 0.003 µM, first compound 0.01 µM): 67.8%
viability, T/C (second compound 0.003 µM, first compound 0.0316 µM): 58.8%
viability, T/C (second compound 0.003 µM, first compound 0.1 µM): 63.8%
viability, T/C (second compound 0.003 µM, first compound 0.316 µM): 71.8%
viability, T/C (second compound 0.003 µM, first compound 1 µM): 56.1%
viability, T/C (second compound 0.00949 µM, first compound 0.00316 µM): 53.8%
viability, T/C (second compound 0.00949 µM, first compound 0.01 µM): 38.4%
viability, T/C (second compound 0.00949 µM, first compound 0.0316 µM): 43.2%
viability, T/C (second compound 0.00949 µM, first compound 0.1 µM): 39.6%
viability, T/C (second compound 0.00949 µM, first compound 0.316 µM): 42.9%
viability, T/C (second compound 0.00949 µM, first compound 1 µM): 48.1%
viability, T/C (second compound 0.03 µM, first compound 0.00316 µM): 27.8%
viability, T/C (second compound 0.03 µM, first compound 0.01 µM): 31.3%
viability, T/C (second compound 0.03 µM, first compound 0.0316 µM): 29.7%
viability, T/C (second compound 0.03 µM, first compound 0.1 µM): 30.9%
viability, T/C (second compound 0.03 µM, first compound 0.316 µM): 29.2%
viability, T/C (second compound 0.03 µM, first compound 1 µM): 40.9%
viability, T/C (second compound 0.0949 µM, first compound 0.00316 µM): 22%
viability, T/C (second compound 0.0949 µM, first compound 0.01 µM): 22.1%
viability, T/C (second compound 0.0949 µM, first compound 0.0316 µM): 20.8%
viability, T/C (second compound 0.0949 µM, first compound 0.1 µM): 22%
viability, T/C (second compound 0.0949 µM, first compound 0.316 µM): 22%
viability, T/C (second compound 0.0949 µM, first compound 1 µM): 31.6%
viability, T/C (second compound 0.3 µM, first compound 0.00316 µM): 19.2%
viability, T/C (second compound 0.3 µM, first compound 0.01 µM): 18.9%
viability, T/C (second compound 0.3 µM, first compound 0.0316 µM): 19.1%
viability, T/C (second compound 0.3 µM, first compound 0.1 µM): 20.3%
viability, T/C (second compound 0.3 µM, first compound 0.316 µM): 22.4%
viability, T/C (second compound 0.3 µM, first compound 1 µM): 32.7%

CCc1c2c(nc3ccc(O)cc13)-c1cc3c(c(=O)n1C2)COC(=O)[C@]3(O)CC + CCn1c(-c2cc(N3CCN(C)CC3)cnc2C(C)OC)c2c3cc(ccc31)-c1csc(n1)CC(NC(=O)C1CC1C)C(=O)N1CCCC(N1)C(=O)OCC(C)(C)C2
IC50 [1]: 14.5 nM
IC50 [2]: 6.76 nM
IC50 [3]: < 0.949 nM
IC50 [4]: < 0.949 nM
IC50 [5]: < 0.949 nM
IC50 [6]: < 0.949 nM
viability, T/C (second compound 0.000949 µM, first compound 0.000949 µM): 101%
viability, T/C (second compound 0.000949 µM, first compound 0.003 µM): 89%
viability, T/C (second compound 0.000949 µM, first compound 0.00949 µM): 49.6%
viability, T/C (second compound 0.000949 µM, first compound 0.03 µM): 40.2%
viability, T/C (second compound 0.000949 µM, first compound 0.0949 µM): 22.3%
viability, T/C (second compound 0.000949 µM, first compound 0.3 µM): 9.11%
viability, T/C (second compound 0.003 µM, first compound 0.000949 µM): 92.3%
viability, T/C (second compound 0.003 µM, first compound 0.003 µM): 62.8%
viability, T/C (second compound 0.003 µM, first compound 0.00949 µM): 43.8%
viability, T/C (second compound 0.003 µM, first compound 0.03 µM): 29.8%
viability, T/C (second compound 0.003 µM, first compound 0.0949 µM): 19.4%
viability, T/C (second compound 0.003 µM, first compound 0.3 µM): 8.62%
viability, T/C (second compound 0.00949 µM, first compound 0.000949 µM): 48.8%
viability, T/C (second compound 0.00949 µM, first compound 0.003 µM): 39.1%
viability, T/C (second compound 0.00949 µM, first compound 0.00949 µM): 38.8%
viability, T/C (second compound 0.00949 µM, first compound 0.03 µM): 24.8%
viability, T/C (second compound 0.00949 µM, first compound 0.0949 µM): 17.9%
viability, T/C (second compound 0.00949 µM, first compound 0.3 µM): 12.2%
viability, T/C (second compound 0.03 µM, first compound 0.000949 µM): 33%
viability, T/C (second compound 0.03 µM, first compound 0.003 µM): 32.8%
viability, T/C (second compound 0.03 µM, first compound 0.00949 µM): 27%
viability, T/C (second compound 0.03 µM, first compound 0.03 µM): 21.1%
viability, T/C (second compound 0.03 µM, first compound 0.0949 µM): 13.9%
viability, T/C (second compound 0.03 µM, first compound 0.3 µM): 11.9%
viability, T/C (second compound 0.0949 µM, first compound 0.000949 µM): 22.9%
viability, T/C (second compound 0.0949 µM, first compound 0.003 µM): 24.1%
viability, T/C (second compound 0.0949 µM, first compound 0.00949 µM): 21.8%
viability, T/C (second compound 0.0949 µM, first compound 0.03 µM): 15.9%
viability, T/C (second compound 0.0949 µM, first compound 0.0949 µM): 11.2%
viability, T/C (second compound 0.0949 µM, first compound 0.3 µM): 9.7%
viability, T/C (second compound 0.3 µM, first compound 0.000949 µM): 22.7%
viability, T/C (second compound 0.3 µM, first compound 0.003 µM): 20.4%
viability, T/C (second compound 0.3 µM, first compound 0.00949 µM): 18.1%
viability, T/C (second compound 0.3 µM, first compound 0.03 µM): 12.5%
viability, T/C (second compound 0.3 µM, first compound 0.0949 µM): 13.3%
viability, T/C (second compound 0.3 µM, first compound 0.3 µM): 8.58%

CCc1c2c(nc3ccc(O)cc13)-c1cc3c(c(=O)n1C2)COC(=O)[C@]3(O)CC
viability, T/C (compound 0.003 µM): 97% [middle of 4 runs]
viability, T/C (compound 0.00949 µM): 76% [middle of 4 runs]
viability, T/C (compound 0.03 µM): 49% [middle of 4 runs]
viability, T/C (compound 0.0949 µM): 24.7% [middle of 4 runs]
viability, T/C (compound 0.3 µM): 12.9% [middle of 4 runs]
IC50 (curve of compound): 30.9 nM [middle of 4 runs]
